Data taken from ChEMBL document CHEMBL5291721, “A preclinical secondary pharmacology resource illuminates target-adverse drug reaction associations of marketed drugs” (Nat Commun, 2023).

Tests used:
[1] = target: T1, Alpha-1A adrenergic receptor (Homo sapiens, UniProt P35348); assay type: functional, cell-based
T1 sequence (P35348 whole entry): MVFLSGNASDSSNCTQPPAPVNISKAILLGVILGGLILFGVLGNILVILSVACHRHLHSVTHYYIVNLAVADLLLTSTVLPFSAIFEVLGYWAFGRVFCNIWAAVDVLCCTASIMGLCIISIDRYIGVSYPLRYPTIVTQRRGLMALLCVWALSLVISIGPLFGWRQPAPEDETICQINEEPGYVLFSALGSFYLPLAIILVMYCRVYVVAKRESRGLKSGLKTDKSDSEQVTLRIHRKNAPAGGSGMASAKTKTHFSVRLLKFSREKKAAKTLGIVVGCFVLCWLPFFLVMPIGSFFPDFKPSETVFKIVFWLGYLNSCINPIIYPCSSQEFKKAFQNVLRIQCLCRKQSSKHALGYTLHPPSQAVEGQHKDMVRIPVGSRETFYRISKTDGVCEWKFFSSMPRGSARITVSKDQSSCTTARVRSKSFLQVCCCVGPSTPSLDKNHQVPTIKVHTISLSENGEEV

[2] = target: T2, Muscarinic acetylcholine receptor M1 (Homo sapiens, UniProt P11229); assay type: functional, cell-based
T2 sequence (P11229 whole entry): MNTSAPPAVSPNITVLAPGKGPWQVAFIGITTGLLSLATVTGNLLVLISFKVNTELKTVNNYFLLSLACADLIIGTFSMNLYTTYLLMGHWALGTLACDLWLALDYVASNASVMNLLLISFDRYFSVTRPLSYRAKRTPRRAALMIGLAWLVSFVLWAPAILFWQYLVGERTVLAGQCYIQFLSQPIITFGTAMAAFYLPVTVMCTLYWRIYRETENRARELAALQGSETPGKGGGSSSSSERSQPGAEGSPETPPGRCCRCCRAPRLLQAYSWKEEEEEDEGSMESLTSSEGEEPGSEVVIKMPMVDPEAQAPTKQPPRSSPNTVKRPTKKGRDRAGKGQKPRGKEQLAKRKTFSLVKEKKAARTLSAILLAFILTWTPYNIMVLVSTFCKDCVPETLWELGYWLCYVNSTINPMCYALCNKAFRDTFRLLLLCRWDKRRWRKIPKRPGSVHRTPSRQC

[3] = target: T3, 5-hydroxytryptamine receptor 1A (Homo sapiens, UniProt P08908); assay type: functional, cell-based
T3 sequence (P08908 whole entry): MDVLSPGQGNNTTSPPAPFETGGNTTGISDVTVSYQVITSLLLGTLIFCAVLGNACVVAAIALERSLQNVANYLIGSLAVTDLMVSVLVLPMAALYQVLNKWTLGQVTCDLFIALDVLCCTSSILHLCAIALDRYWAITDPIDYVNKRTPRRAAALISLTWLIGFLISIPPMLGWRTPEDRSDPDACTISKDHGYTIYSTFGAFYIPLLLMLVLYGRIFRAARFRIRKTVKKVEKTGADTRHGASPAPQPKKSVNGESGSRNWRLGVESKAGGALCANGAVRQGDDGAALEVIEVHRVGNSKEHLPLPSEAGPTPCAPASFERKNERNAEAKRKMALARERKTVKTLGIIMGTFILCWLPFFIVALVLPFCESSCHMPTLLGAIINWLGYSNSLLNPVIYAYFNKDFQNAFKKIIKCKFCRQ

[4] = target: Gamma-aminobutyric acid receptor subunit alpha-1 (Rattus norvegicus, UniProt P62813); assay type: functional
Chain of Gamma-aminobutyric acid receptor subunit alpha-1 (P62813 whole entry): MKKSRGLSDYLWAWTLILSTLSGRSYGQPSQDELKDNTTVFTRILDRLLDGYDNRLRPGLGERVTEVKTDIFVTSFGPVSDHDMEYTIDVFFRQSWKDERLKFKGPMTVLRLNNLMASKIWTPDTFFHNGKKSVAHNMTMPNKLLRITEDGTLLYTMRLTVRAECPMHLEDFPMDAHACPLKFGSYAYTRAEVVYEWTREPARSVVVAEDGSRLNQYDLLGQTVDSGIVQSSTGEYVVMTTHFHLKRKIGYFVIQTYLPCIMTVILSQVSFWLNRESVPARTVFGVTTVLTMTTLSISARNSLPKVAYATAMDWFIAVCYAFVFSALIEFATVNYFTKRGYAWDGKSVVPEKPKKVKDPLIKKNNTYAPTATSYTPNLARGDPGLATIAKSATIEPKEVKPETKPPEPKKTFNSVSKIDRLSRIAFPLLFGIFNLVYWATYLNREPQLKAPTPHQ

[5] = target: T4, Cholecystokinin receptor type A (Homo sapiens, UniProt P32238)
T4 sequence (P32238 whole entry): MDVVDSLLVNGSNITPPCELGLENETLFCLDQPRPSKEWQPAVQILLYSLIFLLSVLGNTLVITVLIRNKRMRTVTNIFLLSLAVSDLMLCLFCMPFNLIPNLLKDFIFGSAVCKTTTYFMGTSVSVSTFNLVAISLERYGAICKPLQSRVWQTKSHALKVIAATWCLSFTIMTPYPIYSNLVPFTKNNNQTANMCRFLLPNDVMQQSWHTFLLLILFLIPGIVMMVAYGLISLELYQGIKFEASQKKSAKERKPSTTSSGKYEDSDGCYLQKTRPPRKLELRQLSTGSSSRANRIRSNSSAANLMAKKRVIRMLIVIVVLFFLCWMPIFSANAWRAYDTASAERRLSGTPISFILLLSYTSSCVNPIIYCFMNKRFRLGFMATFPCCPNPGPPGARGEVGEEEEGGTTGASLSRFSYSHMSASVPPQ

B2 bradykinin receptor = target: T5, B2 bradykinin receptor (Homo sapiens, UniProt P30411)
T5 sequence (P30411 whole entry): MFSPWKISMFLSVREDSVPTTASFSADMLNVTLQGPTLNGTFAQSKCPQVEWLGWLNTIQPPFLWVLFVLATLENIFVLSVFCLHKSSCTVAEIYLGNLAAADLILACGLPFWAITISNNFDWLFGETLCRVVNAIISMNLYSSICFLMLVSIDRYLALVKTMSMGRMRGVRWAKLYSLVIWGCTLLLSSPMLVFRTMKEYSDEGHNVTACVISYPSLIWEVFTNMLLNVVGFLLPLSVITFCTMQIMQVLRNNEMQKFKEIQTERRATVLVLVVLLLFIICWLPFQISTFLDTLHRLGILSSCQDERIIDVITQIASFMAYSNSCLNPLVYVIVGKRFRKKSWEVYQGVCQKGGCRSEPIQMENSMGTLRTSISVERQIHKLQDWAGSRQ

[6] = target: T6, 5-hydroxytryptamine receptor 2C (Homo sapiens, UniProt P28335)
T6 sequence (P28335 whole entry): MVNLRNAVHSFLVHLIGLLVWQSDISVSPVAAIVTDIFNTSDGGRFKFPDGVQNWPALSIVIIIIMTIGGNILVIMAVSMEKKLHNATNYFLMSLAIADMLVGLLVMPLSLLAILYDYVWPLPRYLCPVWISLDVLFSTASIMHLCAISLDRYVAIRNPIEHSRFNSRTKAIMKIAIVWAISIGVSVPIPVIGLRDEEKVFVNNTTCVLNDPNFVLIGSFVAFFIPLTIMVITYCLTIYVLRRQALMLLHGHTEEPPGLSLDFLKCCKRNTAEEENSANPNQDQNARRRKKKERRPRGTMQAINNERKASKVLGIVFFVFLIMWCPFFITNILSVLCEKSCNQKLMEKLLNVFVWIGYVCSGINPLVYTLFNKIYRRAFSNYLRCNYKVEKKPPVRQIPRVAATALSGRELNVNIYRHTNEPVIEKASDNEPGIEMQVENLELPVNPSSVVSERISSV

Adenosine receptor A2a = Adenosine receptor A2a (Homo sapiens, UniProt P29274)
Chain of Adenosine receptor A2a (P29274 whole entry): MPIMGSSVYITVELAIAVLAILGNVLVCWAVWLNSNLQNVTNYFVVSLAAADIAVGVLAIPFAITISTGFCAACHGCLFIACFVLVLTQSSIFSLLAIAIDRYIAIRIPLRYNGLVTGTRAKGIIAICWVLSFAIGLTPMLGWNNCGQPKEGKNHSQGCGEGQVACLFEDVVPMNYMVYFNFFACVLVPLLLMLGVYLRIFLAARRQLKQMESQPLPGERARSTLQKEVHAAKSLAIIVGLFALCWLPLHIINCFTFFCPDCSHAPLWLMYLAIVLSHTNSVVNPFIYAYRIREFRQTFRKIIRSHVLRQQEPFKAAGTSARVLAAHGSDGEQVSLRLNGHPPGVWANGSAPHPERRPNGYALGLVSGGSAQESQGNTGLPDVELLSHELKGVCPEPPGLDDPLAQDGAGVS

[7] = target: Growth hormone secretagogue receptor type 1 (Homo sapiens, UniProt Q92847)
Chain of Growth hormone secretagogue receptor type 1 (Q92847 whole entry): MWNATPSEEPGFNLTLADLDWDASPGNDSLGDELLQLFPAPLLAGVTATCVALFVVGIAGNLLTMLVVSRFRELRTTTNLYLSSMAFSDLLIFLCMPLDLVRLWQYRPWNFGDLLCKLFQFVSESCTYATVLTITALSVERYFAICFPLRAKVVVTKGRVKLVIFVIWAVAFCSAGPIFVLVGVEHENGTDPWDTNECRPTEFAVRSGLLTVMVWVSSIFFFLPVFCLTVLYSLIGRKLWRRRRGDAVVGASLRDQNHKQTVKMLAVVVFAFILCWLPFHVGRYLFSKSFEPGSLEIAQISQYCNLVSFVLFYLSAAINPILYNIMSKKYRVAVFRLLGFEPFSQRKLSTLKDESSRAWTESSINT

[8] = target: Kappa-type opioid receptor (Homo sapiens, UniProt P41145)
Chain of Kappa-type opioid receptor (P41145 whole entry): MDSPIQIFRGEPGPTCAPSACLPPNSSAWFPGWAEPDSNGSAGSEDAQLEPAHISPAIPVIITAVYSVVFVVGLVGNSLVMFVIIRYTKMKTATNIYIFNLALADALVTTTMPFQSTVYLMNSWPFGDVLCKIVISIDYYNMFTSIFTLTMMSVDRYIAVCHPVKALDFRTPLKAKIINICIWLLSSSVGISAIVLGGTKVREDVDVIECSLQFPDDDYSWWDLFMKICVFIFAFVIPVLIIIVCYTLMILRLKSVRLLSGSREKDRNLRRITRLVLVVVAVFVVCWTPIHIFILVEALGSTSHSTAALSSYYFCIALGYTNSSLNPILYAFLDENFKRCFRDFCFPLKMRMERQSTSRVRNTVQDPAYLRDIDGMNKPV
Note: assay procedure not described here.

Row | SMILES | AC50 [1] [µM] | AC50 [2] [µM] | AC50 [3] [µM] | AC50 [4] [µM] | AC50 [5] [µM] | AC50 (B2 bradykinin receptor) [µM] | AC50 [6] [µM] | AC50 (Adenosine receptor A2a) [µM] | AC50 [7] [µM] | AC50 [8] [µM]
1 | CN1CCC[C@@H]1Cc1c[nH]c2ccc(CCS(=O)(=O)c3ccccc3)cc12 | > 30 |  |  |  |  |  |  |  |  | 
2 | COc1nccnc1NS(=O)(=O)c1ccc(N)cc1 | > 30 | > 30 |  |  |  |  |  |  |  | 
3 | O=C(Nc1cccc2c(=O)cc(-c3nnn[nH]3)oc12)c1ccc(OCCCCc2ccccc2)cc1 | > 30 | > 30 |  |  |  |  |  |  |  | 
4 | NC(=O)c1nc(F)c[nH]c1=O | > 30 | > 30 |  |  |  |  |  |  |  | 
5 | CN(C)CCCN1C(=O)c2cc([N+](=O)[O-])ccc2Oc2ccccc21 | > 30 | > 30 |  |  |  |  |  |  |  | 
6 | O=S(=O)(O)CCS [2-MERCAPTOETHANESULFONIC ACID] | > 30 |  |  |  |  |  |  |  |  | 
7 | O=C(O)COc1nn(Cc2ccccc2)c2ccccc12 [BENDAZAC] | > 30 | > 30 |  |  |  |  |  |  |  | 
8 | Cc1ccc([C@@H]2O[C@H](CO)[C@@H](O)[C@H](O)[C@H]2O)cc1Cc1ccc(-c2ccc(F)cc2)s1 [CANAGLIFLOZIN ANHYDROUS] | > 30 | > 30 |  |  |  |  |  |  |  | 
9 | O=C(O)CCCc1ccc(N(CCCl)CCCl)cc1 [CHLORAMBUCIL] | > 30 |  |  |  |  |  |  |  |  | 
10 | CN(C)CCN(Cc1ccc(Cl)cc1)c1ccccn1 [CHLOROPYRAMINE] | 6.52 | 2.27 |  |  |  |  |  |  |  | 
11 | O=C(O)c1cc(=O)c2ccccc2o1 [CHROMOCARB] | > 30 | > 30 |  |  |  |  |  |  |  | 
12 | COC(=O)[C@H](c1ccccc1Cl)N1CCc2sccc2C1 [CLOPIDOGREL] |  |  | > 30 | > 30 | > 30 | > 30 | > 30 | > 30 | > 30 | 14.9
13 | CN(CC(=O)O)C(=N)N [CREATINE] | > 30 | > 30 |  |  |  |  |  |  |  | 
14 | N[C@@H](CSSC[C@H](N)C(=O)O)C(=O)O [CYSTINE] | > 30 | > 30 |  |  |  |  |  |  |  | 
15 | Cn1c(=O)c2c(ncn2CC(O)CO)n(C)c1=O (stereo not drawn) [DYPHYLLINE] | > 30 |  |  |  |  |  |  |  |  | 
16 | Nc1nc(O)c2ncn(COC(CO)CO)c2n1 [GANCICLOVIR] |  |  | > 30 | > 30 | > 30 | > 30 | > 30 | > 30 | > 30 | > 30
17 | CC1(C)O[C@@H]2C[C@H]3[C@@H]4CCC5=CC(=O)CC[C@]5(C)[C@@]4(F)[C@@H](O)C[C@]3(C)[C@]2(C(=O)CCl)O1 [HALCINONIDE] | > 30 |  |  |  |  |  |  |  |  | 
18 | Cc1cnc(NC(=O)C2=C(O)c3ccccc3S(=O)(=O)N2C)s1 [MELOXICAM] |  |  | > 10 | > 10 | > 30 | > 30 | > 10 | > 30 | > 30 | > 10
19 | CCOc1cc(N)c(Cl)cc1C(=O)NCC1CN(Cc2ccc(F)cc2)CCO1 (stereo not drawn) [MOSAPRIDE] | > 30 |  |  |  |  |  |  |  |  | 
20 | CN1CCC[C@H]1c1cccnc1 [NICOTINE] | > 30 |  |  |  |  |  |  |  |  | 
21 | CC(=O)Oc1ccccc1C(=O)Nc1ncc([N+](=O)[O-])s1 [NITAZOXANIDE] |  | > 30 |  | > 30 | 6.6 | 4.9 | 0.45 | 8.8 | 15 | > 30
22 | COc1ccnc(C[S+]([O-])c2nc3ccc(OC(F)F)cc3[nH]2)c1OC (stereo not drawn) [PANTOPRAZOLE] |  |  | > 10 | > 10 | > 30 | > 30 | > 30 | > 30 | > 30 | > 10
23 | CNC[C@H](O)c1cccc(O)c1 [PHENYLEPHRINE] |  | > 30 | > 10 | > 10 | > 30 | > 30 | > 30 | > 30 | > 30 | > 10
24 | O=C1NC(=O)C(c2ccccc2)(c2ccccc2)N1 [PHENYTOIN] |  |  | > 30 | > 30 | > 30 | > 30 | > 30 | > 30 | > 30 | > 10
25 | CC(C)C[C@H](CN)CC(=O)O [PREGABALIN] |  |  | > 30 | > 30 | > 30 | > 30 | > 30 | > 30 | > 30 | > 30
26 | CC(C)N(CCCCOCC(=O)NS(C)(=O)=O)c1cnc(-c2ccccc2)c(-c2ccccc2)n1 [SELEXIPAG] |  |  | 24 | > 30 | > 30 | > 10 | > 30 | > 30 | > 30 | 29
27 | CC(=O)S[C@@H]1CC2=CC(=O)CC[C@]2(C)[C@H]2CC[C@@]3(C)[C@@H](CC[C@@]34CCC(=O)O4)[C@H]12 [SPIRONOLACTONE] |  |  | > 30 | > 10 | > 30 | > 30 | > 30 | > 30 | > 30 | 14.8
28 | CCCCNc1ccc(C(=O)OCCN(C)C)cc1 [TETRACAINE] | > 30 |  | > 10 | > 10 | > 30 | > 30 | > 10 | > 30 | > 30 | > 10
29 | Cn1c(=O)c2[nH]cnc2n(C)c1=O [THEOPHYLLINE] | > 10 |  | > 10 | > 10 | > 30 | > 30 | > 30 |  | > 30 | > 10
30 | Cc1cc(CC(=O)O)n(C)c1C(=O)c1ccc(Cl)cc1 [ZOMEPIRAC] |  |  | > 30 | > 30 | > 30 | > 30 | > 30 | > 30 | > 30 | > 30
